Structures can show the parent of a compound that is named as a salt.
Key:
kappa opioid receptor = target: T1, kappa opioid receptor (Mus musculus, UniProt P33534); assay: Radioligand binding, kappa opioid receptor ([3H]-U69593, mouse brain membranes); details: selectivity ratio, kappa vs delta
T1 construct: Mouse brain membranes were prepared as described by; from tissue; host or cells: mouse brain membranes
Description: (§1) Mouse brain membranes were prepared as described by Kosteriitz (Br. J. Pharmacol., 1981, 73, 939.). […] The binding of the mu ligand [^3 H]-DAMGO (Eur. J. Pharmacol., 1989, 166, 213) and of the kappa ligand [^3 H]-U69593 (Excerpta Medica, 1990, 211) were carried out at 0.5 nM. The non-specific binding was determined in presence of naloxone (10 μM) for all tritiated ligands. […] The IC50 obtained were used to calculate the inhibitory constants (Ki) accordingly to the Cheng and Prusoff relation (Biochem. Pharmacol., 1973, 22, 3099).

[1] = target: delta opioid receptor (mouse vas deferens); assay: Mouse vas deferens (MVD) bioassay, delta agonist/antagonist activity
Description: The delta agonist/antagonist activity of the compounds of the present invention is determined in the mouse vas deferens (MVD) bioassay as described below.
Vasa deferentia were obtained from CD-1 mice and were suspended in a Mg^2+ -free Krebs buffer at 37° C. The tissues were electrically stimulated with pulse trains having the following parameters: train duration 50 ms, stimulus duration 2 ms, frequency of stimuli 50 Hz, maximal voltage 60-70 V, train frequency 0.1 Hz. Concentration response curves for each compounds were constructed cumulatively. Linear regression analysis and IC50 concentrations were evaluated according to Tallarida and Murray (Manual of Pharmacological Calculations, Springer Verlag N.Y., 1981).

delta opioid receptor = target: T2, delta opioid receptor (Mus musculus, UniProt P32300); assay: Radioligand binding, delta opioid receptor ([3H]-DADLE, mouse brain membranes); details: [3H]-DADLE binding, 1.3 nM, with 40 nM unlabelled DAMGO
T2 construct: Mouse brain membranes were prepared as described by; from tissue; host or cells: mouse brain membranes
Description: as §1

mu opioid receptor = target: T3, mu opioid receptor (Mus musculus, UniProt P42866); assay: Radioligand binding, mu opioid receptor ([3H]-DAMGO, mouse brain membranes); details: selectivity ratio, mu vs delta
T3 construct: Mouse brain membranes were prepared as described by; from tissue; host or cells: mouse brain membranes
Description: as §1

T2 sequence (P32300 whole entry): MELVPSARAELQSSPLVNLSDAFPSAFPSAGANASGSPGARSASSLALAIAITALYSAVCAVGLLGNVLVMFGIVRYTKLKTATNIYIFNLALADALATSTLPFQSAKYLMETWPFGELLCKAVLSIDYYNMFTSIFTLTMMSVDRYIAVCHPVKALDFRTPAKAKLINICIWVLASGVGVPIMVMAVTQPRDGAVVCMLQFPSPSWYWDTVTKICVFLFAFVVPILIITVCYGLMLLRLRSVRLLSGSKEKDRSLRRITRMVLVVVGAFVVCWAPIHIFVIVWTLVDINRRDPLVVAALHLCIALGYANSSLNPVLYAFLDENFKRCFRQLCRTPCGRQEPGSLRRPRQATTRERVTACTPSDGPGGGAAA
T3 sequence (P42866 whole entry): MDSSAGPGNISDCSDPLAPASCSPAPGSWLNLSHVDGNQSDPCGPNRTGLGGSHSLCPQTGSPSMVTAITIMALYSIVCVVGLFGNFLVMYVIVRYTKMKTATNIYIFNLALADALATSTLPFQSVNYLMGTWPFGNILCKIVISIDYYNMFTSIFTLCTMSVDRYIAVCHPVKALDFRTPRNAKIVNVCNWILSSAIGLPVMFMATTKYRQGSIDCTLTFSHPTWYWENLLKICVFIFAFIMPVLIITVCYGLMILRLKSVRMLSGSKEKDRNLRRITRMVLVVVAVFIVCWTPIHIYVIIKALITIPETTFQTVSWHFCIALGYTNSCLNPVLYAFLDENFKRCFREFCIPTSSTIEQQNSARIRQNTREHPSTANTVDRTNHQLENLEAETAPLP
T1 sequence (P33534 whole entry): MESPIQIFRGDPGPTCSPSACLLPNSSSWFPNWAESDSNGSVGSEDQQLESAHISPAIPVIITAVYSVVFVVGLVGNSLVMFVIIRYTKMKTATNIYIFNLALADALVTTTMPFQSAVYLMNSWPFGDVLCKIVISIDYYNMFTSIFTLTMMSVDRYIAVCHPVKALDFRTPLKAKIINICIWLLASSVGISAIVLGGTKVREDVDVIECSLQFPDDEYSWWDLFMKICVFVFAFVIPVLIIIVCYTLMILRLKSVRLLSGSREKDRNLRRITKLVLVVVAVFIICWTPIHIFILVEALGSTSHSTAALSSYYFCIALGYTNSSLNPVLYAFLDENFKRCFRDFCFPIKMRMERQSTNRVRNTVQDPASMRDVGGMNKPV

`CCN(CC)C(=O)c1[nH]c2c(c1C)C[C@H]1[C@H]3Cc4ccc(OC)c5c4[C@@]1(CCN3C)[C@H]2O5` [Example 7, [8R-(4bS*,8α,8aβ,12bβ)]-11-Diethylaminocarbonyl-7,10-dimethyl-1-methoxy-5,6,7,8,12,12b-hexahyro-(9H)-4,8-methanobenzofuro[3,2-e]pyrrolo[2,3-g]isoquinoline hydrochloride] was tested, and the “Ki kappa/Ki delta” value (kappa opioid receptor) was 2259, the IC50 ([1]; electrically stimulated mouse vas deferens, 37° C.) was 25 nM and the “shift of the dose-response curve by NTI (selective antagonism)” value ([1]; in presence of 30 nM of NTI (naltrindole), MVD) was 10 fold. The Ki (delta opioid receptor) was 1.59 nM and the “Ki mu/Ki delta” value (mu opioid receptor) was 218.

— patent publication US5981540A, “Heterocycle-condensed morphinoid derivatives” (SmithKline Beecham Farmaceutici S.P.A., priority 1994, dated 1999)
